Data: US7067146B2, “Food compositions and methods of preparing the same” (Eritocap Oy, priority 1999, dated 2006)

How the values were obtained:
[1] = test system: cholesterol in blood serum; test: Blood serum cholesterol reduction by eritadenine; type: in vivo, human
From the text: As regards the therapeutic action of eritadenine it should be noted that it acts endogenously in a dose-dependent manner and can be used as a functional food component in small doses for reducing the total cholesterol of normal human beings. By contrast, existing methods provide for food components having an exogenous effect on the cholesterol balance and these dietary components therefore have to be used in extremely large doses in comparison to eritadenine. […] The present invention makes it possible to produce a functional food component which acts in a druglike manner influencing human phospholipidic metabolic step sequences, still preserving the true features of a functional food component. As mentioned above, eritadenine has the additive effects of not only dose-dependent, endogenous cholesterol-depression but also therapeutic effects like endogenous linoleic acid formation and blood plasma viscosity reduction.
It acts in a drug-like manner, inhibiting the endogenous synthesis of cholesterol metabolism and the enterohepatic fat circle. d-eritadenine is effective in very low absorbed doses, at 1 ppm+-level, ensuring safety and essential metabolic step preservation.
Thus, the addition of eritadenine, especially d-eritadenine, to an exogenously acting existing functional food will more than double the cholesterol-depressing effect due to enterohepatic and exterohepatic multiplicatory effects. Mathematically consecutive 10% reductions would give […] total reduction, and consecutive 15% reductions would give 28% total reduction, by the present invention, due to the feedback inhibition created by the simultaneous exogenous and endogenous actions of the food components, a greater decrease of the cholesterol level will be achieved. The food compositions according to the present invention may therefore comprise a (conventional) food component having an exterohepatic cholesterol depressing effect. Such a food component can be selected from the group of fibers, chitosan, tocotrienols, plant sterols, stanol esters and sitostanol esters. […]

SAH hydrolase = SAH hydrolase (Homo sapiens, UniProt P23526)
From the text: It is possible to achieve favourable changes in the blood plasma cholesterol pattern by reducing the molar ratio of total cholesterol/phospholipid ratio and/or changing the phospolipid molar ratio of PC/PE and/or inhibiting enzymatically controlled reactions where PC and PE is directly or indirectly via the SAM/SAH cycle involved. The following theory has been formulated: • Step 1: Total PL and PL (phospholipids) composition may be changed by kinetics of the SAM and SAH cycle. • Step 2: SAM and SAH concentrations are inhibited/stimulated by intervening in the methionine and cysteine metabolism • Step 3: In this metabolism SAH degradation to adenosine and homocysteine is an enzymatic reaction catalysed by SAH hydrolase. By inhibiting partially, not totally, SAH hydrolase, the concentration of SAH will rise affecting the SAM/SAH ratio and step 1 will be executed.
Eritadenine has been tested for use in the above model.

[2] = test system: cholesterol in blood serum; settings: Merck Index, 12th Edition; cited from earlier work
Solubility = type: physicochemical

Chain of SAH hydrolase (P23526 whole entry): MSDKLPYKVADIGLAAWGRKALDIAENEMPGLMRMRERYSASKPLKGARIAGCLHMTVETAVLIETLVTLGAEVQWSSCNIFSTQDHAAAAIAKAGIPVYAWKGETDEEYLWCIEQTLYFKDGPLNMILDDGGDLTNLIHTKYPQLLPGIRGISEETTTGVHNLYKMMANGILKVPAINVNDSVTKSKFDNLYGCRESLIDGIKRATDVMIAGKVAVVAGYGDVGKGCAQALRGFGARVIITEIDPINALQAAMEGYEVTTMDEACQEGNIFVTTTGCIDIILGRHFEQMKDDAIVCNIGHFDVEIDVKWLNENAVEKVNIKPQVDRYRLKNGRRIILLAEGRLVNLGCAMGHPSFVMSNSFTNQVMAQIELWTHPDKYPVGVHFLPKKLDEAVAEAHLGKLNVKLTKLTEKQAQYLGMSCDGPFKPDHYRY

Row | dose needed for SAH hydrolase inhibition (SAH hydrolase) | extent of SAH hydrolase inhibition (SAH hydrolase) | speed of SAH hydrolase inhibition (SAH hydrolase) | solubility in fats (Solubility) | SMILES | reduction of cholesterol ([1]; 5 to 50 mg as dose response, depending on the dietary cholesterol amount) | effective absorbed dose level ([1]; absorbed dose) | relative efficiency among eritadenine isomers ([1]; compared with l-eritadenine (2S,3S) and threo isomers) | effect on concentration of cholesterol in blood serum [2]
1 | inhibits already in small doses | inhibits partially, no total blocking | rapid | – | Nc1ncnc2c1ncn2C[C@@H](O)[C@@H](O)C(=O)O [d-eritadenine, 2(R), 3(R)-dihydroxy-4-(9-adenyl)butyric acid] | > 20% | ≥ 1 ppm | most efficient | –
2 | – | – | – | soluble in fats | Nc1ncnc2c1ncn2C[C@@H](O)[C@@H](O)C(=O)O [Eritadenine] | – | – | – | capable of reducing the concentration of cholesterol in blood serum
